Measurements reported in patent US10711036B2, “MALT1 inhibitors and uses thereof” (Cornell University, priority 2015, dated 2020).
Where a SMILES comes first, the peptide text is derived from it. [ ]: non-standard residue; d: D form. The star is where a group is joined. ξ: configuration not given here. Ile(3ξ) = CCC(C)[C@H](N)C(=O)O; Ac5c = NC1(C(=O)O)CCCC1; Cbz = O=C(OCc1ccccc1)*; CH2F = FC*

Tests used:
MALT1 = MALT1 (Homo sapiens (Human), UniProt Q9UDY8); assay: Inhibition constants (Ki) for inhibition of MALT1; type: biochemical; settings: 100 nM MALT1 used for the assay
Protocol: For exemplary compounds of the disclosure, Ki for inhibition of MALT1 was measured (Table E11). A concentration of 100 nM MALT1 was used for the assay.

OCI-LY3 = assay: Cell growth inhibition assay (CellTiter-Glo, 96 hours), OCI-LY3; type: cell-based, human; settings: Homo sapiens, OCI-LY3 cells, treated at t=0 and t=48 hours, ATP luminescence
Protocol: DLBCL cell lines were grown in exponential growth conditions during the 96 hours of treatment. Cells were treated twice: at t=0 and t=48 hours, and cell viability was determined by ATP quantification using a luminescent method ([…]-GLO, Promega, Madison, Wis.). Cell viability in drug-treated cells was normalized to vehicle controls (fractional viability) and results are given as 1-fractional viability.
Experiments were Performed in Triplicate.

Chain of MALT1 (Q9UDY8 whole entry): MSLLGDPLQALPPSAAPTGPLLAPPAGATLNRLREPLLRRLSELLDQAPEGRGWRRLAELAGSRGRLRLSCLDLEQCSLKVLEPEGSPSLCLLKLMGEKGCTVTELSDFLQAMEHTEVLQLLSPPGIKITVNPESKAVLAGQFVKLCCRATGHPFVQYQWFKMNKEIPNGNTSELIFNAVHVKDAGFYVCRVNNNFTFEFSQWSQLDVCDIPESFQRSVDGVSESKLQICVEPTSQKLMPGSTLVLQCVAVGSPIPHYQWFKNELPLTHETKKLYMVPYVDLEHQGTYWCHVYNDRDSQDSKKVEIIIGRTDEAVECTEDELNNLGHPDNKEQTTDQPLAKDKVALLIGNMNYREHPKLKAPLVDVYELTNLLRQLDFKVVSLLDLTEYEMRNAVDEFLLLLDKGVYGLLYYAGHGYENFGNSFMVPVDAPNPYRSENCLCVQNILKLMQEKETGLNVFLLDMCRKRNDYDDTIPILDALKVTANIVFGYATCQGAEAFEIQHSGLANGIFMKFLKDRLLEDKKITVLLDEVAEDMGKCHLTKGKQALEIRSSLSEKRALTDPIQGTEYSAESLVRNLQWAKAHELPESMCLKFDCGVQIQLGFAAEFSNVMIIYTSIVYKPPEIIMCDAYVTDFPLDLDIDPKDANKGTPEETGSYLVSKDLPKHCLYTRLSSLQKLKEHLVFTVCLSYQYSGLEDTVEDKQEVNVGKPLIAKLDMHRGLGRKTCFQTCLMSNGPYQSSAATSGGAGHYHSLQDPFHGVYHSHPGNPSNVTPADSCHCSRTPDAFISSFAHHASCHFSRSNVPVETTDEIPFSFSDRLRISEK

SMILES	Ki (MALT1)	GI50 (OCI-LY3)
CC(C)[C@H](NC(=O)c1ccc(Br)cc1)C(=O)N1CCCC[C@H]1C(=O)N[C@@H](CCCNC(=N)N)C(=O)CF [Compound 144]	79 nM	460 nM
CC(C)[C@H](NC(=O)c1ccc(OC(F)(F)F)cc1)C(=O)N1CCC[C@H]1C(=O)N[C@@H](CCCNC(=N)N)C(=O)CF [Compound 145]	27 nM	700 nM
CC(C)[C@H](NC(=O)c1ccc(Cl)c(C#N)c1)C(=O)N1CCC[C@H]1C(=O)N[C@@H](CCCNC(=N)N)C(=O)CF [Compound 147]	24 nM	550 nM
CC(C)[C@H](NC(=O)c1cccc(OC(F)(F)F)c1)C(=O)N1CCC[C@H]1C(=O)N[C@@H](CCCNC(=N)N)C(=O)CF [Compound 148]	15 nM	530 nM
CC(C)[C@H](NC(=O)c1cccc2ccccc12)C(=O)N1CCC[C@H]1C(=O)N[C@@H](CCCNC(=N)N)C(=O)CF [Compound 153]	102 nM	160 nM
CC(C)[C@H](NC(=O)/C=C/c1ccccc1)C(=O)N1CCC[C@H]1C(=O)N[C@@H](CCCNC(=N)N)C(=O)CF [Compound 154]	36 nM	110 nM
CC(C)[C@H](NC(=O)c1ccc2ccccc2n1)C(=O)N1CCC[C@H]1C(=O)N[C@@H](CCCNC(=N)N)C(=O)CF [Compound 155]	55 nM	570 nM
CC(C)[C@H](NC(=O)c1cnc2ccccc2c1)C(=O)N1CCC[C@H]1C(=O)N[C@@H](CCCNC(=N)N)C(=O)CF [Compound 156]	40 nM	3880 nM
CC(C)[C@H](NC(=O)c1ccc2cnccc2c1)C(=O)N1CCC[C@H]1C(=O)N[C@@H](CCCNC(=N)N)C(=O)CF [Compound 157]	59 nM	630 nM
CC(C)[C@H](NC(=O)c1ccc2ccncc2c1)C(=O)N1CCC[C@H]1C(=O)N[C@@H](CCCNC(=N)N)C(=O)CF [Compound 158]	110 nM	1700 nM
CC(C)[C@H](NC(=O)c1ccnc2ccccc12)C(=O)N1CCC[C@H]1C(=O)N[C@@H](CCCNC(=N)N)C(=O)CF [Compound 159]	139 nM	4220 nM
CC(C)[C@H](NC(=O)c1ccc(F)cc1)C(=O)N1CCC[C@H]1C(=O)N[C@@H](CCCNC(=N)N)C(=O)CF [Compound 160]	13 nM	2340 nM
CC(C)[C@H](NC(=O)c1ccc(F)cc1)C(=O)N1CCC[C@H]1C(=O)N[C@H](CCCNC(=N)N)C(=O)CF [Compound 161]	346 nM	910 nM
CC(C)[C@H](NC(=O)c1ccc(C(C)(C)C)cc1)C(=O)N1CCC[C@H]1C(=O)N[C@@H](CCCNC(=N)N)C(=O)CF [Compound 162]	45 nM	980 nM
CC(C)[C@H](NC(=O)Nc1ccc(Cl)cc1)C(=O)N1CCC[C@H]1C(=O)N[C@@H](CCCNC(=N)N)C(=O)CF [Compound 164]	62 nM	780 nM
CC(C)[C@H](NC(=O)Nc1cccc(Cl)c1)C(=O)N1CCC[C@H]1C(=O)N[C@@H](CCCNC(=N)N)C(=O)CF [Compound 165]	27 nM	520 nM
CC(C)[C@H](NC(=O)c1ccc(Br)cc1)C(=O)N1C[C@H](O)C[C@H]1C(=O)N[C@@H](CCCNC(=N)N)C(=O)CF [Compound 171]	50 nM	70 nM
N=C(N)NCCC[C@H](NC(=O)[C@H](CO)NC(=O)[C@@H](NC(=O)c1ccc(Br)cc1)C1CCCCC1)C(=O)CF [Compound 173]	46 nM	240 nM
CC(C)[C@H](NC(=O)c1ccc(Br)cc1)C(=O)N1COC[C@H]1C(=O)N[C@@H](CCCNC(=N)N)C(=O)CF [Compound 174]	20 nM	120 nM
CC(C)[C@H](NC(=O)c1ccc(Br)cc1)C(=O)N1CCOC[C@H]1C(=O)N[C@@H](CCCNC(=N)N)C(=O)CF [Compound 175]	70 nM	460 nM
CC(C)[C@H](NC(=O)c1ccc(Br)cc1)C(=O)N1CC[C@H]1C(=O)N[C@@H](CCCNC(=N)N)C(=O)CF [Compound 176]	118 nM	770 nM
CC(C)[C@H](NC(=O)c1ccc(Br)cc1F)C(=O)N1CCC[C@H]1C(=O)N[C@@H](CCCNC(=N)N)C(=O)CF [Compound 179]	71 nM	810 nM
CCC(C)[C@H](NC(=O)OCc1ccccc1)C(=O)N1CCC[C@H]1C(=O)N[C@@H](CCCNC(=N)N)C(=O)CF (stereo partly drawn) [Compound 180] (Cbz-[Ile(3ξ)]-Pro-Arg-CH2F)	30 nM	2440 nM
N=C(N)NCCC[C@H](NC(=O)[C@@H]1CCCN1C(=O)C1(NC(=O)OCc2ccccc2)CCCC1)C(=O)CF [Compound 181] (Cbz-[Ac5c]-Pro-Arg-CH2F)	1180 nM	4310 nM
N=C(N)NCCC[C@H](NC(=O)[C@@H]1CCCN1C(=O)[C@H](Cc1ccccc1)NC(=O)OCc1ccccc1)C(=O)CF [Compound 182]	76 nM	2300 nM
